# Legend:
# E. coli 2 = assay: inhibition of E. coli 2; assay type: cell-based; conditions: Escherichia coli, product contaminated with approximately 5% of 6-aminopenicillanic acid, read-out: concentration inhibiting E. coli 2
# Staph. Oxford = assay: inhibition of Staph. Oxford; assay type: cell-based; conditions: product contaminated with approximately 5% of 6-aminopenicillanic acid; read-out: concentration inhibiting Staph. Oxford
# Gram-negative bacteria = conditions: 100 μg./ml.
# Procedure: (§1) Results were obtained by serial dilution in nutrient agar. The inoculum was one drop of an overnight broth culture, and M.I.C. values were read after 18 hours at 37°C.
# E.Coli = assay: in vitro antibacterial screening, M.I.C., E.Coli; assay type: cell-based; conditions: for MIC: Escherichia coli
# Source text: (§2) The four resulting hydroxypenicillins were then submitted to in vitro antibacterial screening in comparison with the two epimers of α-aminobenzylpenicillin.
# Proteus mirabilis = assay: in vitro antibacterial screening, M.I.C., Proteus mirabilis; assay type: cell-based
# Source text: as §2
# Salm. typhi = assay: in vitro antibacterial screening, M.I.C., Salm. typhi; assay type: cell-based; conditions: for M.I.C. Salm. typhi: in vitro; for MIC: Salmonella enterica, TYPHI, read-out: M.I.C. Salm. typhi, in vitro
# Source text: as §2
# Shigella flexneri = assay: in vitro antibacterial screening, M.I.C., Shigella flexneri; assay type: cell-based; conditions: for MIC: Shigella flexneri
# Source text: as §2
# Kleb. pneum = assay: in vitro antibacterial screening, M.I.C., Kleb. pneum; assay type: cell-based
# Source text: as §2
# clinical = conditions: human, urine, po, 500 mg
# Procedure: (§3) The two penicillins were then compared with ampicillin in absorption studies in human volunteers. Groups of fasting volunteers were each given 500 mg. of the appropriate penicillin by mouth in capsules, and blood samples were withdrawn at regular intervals and assayed biologically to determine the serum concentration of the penicillins. The urine was also collected over a 6 hour period and similarly assayed to determine the proportion of the dose excreted via the kidneys.
# [1] = absorption studies in human volunteers (oral); conditions: serum, 500 mg
# Procedure: as §3
# [2] = comparison within series; cited from earlier work
# E. coli 37 = assay: serial dilution in nutrient agar, synergy M.I.C., E. coli 37; assay type: cell-based; conditions: in the presence of 100 μg./ml. Nafcillin
# Procedure: as §1
# Proteus morganii G = assay: serial dilution in nutrient agar, synergy M.I.C., Proteus morganii G; assay type: cell-based
# Procedure: as §1
# Proteus vulgaris K = assay: serial dilution in nutrient agar, synergy M.I.C., Proteus vulgaris K; assay type: cell-based
# Procedure: as §1
# Paracolon 232 = assay: serial dilution in nutrient agar, synergy M.I.C., Paracolon 232; assay type: cell-based; conditions: in the presence of 100 μg./ml. Methicillin
# Procedure: as §1
# Klebsiella C 978 = assay: serial dilution in nutrient agar, synergy M.I.C., Klebsiella C 978; assay type: cell-based
# Procedure: as §1
# [3] = in the presence of 100 μg./ml. Dicloxacillin
# [4] = in the presence of 100 μg./ml. Flucloxacillin
# [5] = in the presence of 100 μg./ml. Methicillin
smiles,measurement,setting,value
"CC1(C)S[C@@H]2[C@H](NC(=O)[C@H](N)c3ccc(OC(=O)OCc4ccccc4)cc3)C(=O)N2[C@H]1C(=O)O [Example 12, 6-[(-)-α-amino-α-(p-benzyloxycarbonyloxyphenyl)-acetamido]penicillanic acid]",MIC,E. coli 2,5 µg/mL
same,MIC,Staph. Oxford,0.1 µg/mL
Cc1onc(-c2ccccc2Cl)c1C(=O)N[C@@H]1C(=O)N2[C@@H]1SC(C)(C)[C@@H]2C(=O)O [cloxacillin],inhibition of the Gram-negative bacteria by the penicillinase-resistant penicillin by itself,Gram-negative bacteria,None of these penicillinase-resistant penicillins by itself inhibits the Gram-negative bacteria at 100 μg./ml.
"CC1(C)S[C@@H]2C(NC(=O)C(N)c3cccc(O)c3)C(=O)N2[C@H]1C(=O)O (stereo partly drawn) [Example 7, 6[(-)α-amino-m-hydroxyphenylacetamido]penicillanic Acid]",M.I.C. E.Coli,E.Coli; listed as m OH -,5 µg/mL
same,M.I.C. Proteus mirabilis,Proteus mirabilis; listed as m OH -,2.5 µg/mL
same,M.I.C. Salm. typhi,Salm. typhi; listed as m OH -,1.25 µg/mL
same,M.I.C. Shigella flexneri,Shigella flexneri; listed as m OH -,2.5 µg/mL
same,M.I.C. Kleb. pneum,Kleb. pneum; listed as m OH -,1.25 µg/mL
same,dose excreted at 6 h,clinical,31%
same,concentration at 0.5 h,[1],910 ng/mL
same,concentration at 1 h,[1],2500 ng/mL
same,concentration at 2 h,[1],2860 ng/mL
same,concentration at 4 h,[1],1150 ng/mL
same,concentration at 6 h,[1],440 ng/mL
COc1cccc(OC)c1C(=O)N[C@@H]1C(=O)N2[C@@H]1SC(C)(C)[C@@H]2C(=O)O [methicillin],inhibition of the Gram-negative bacteria by the penicillinase-resistant penicillin by itself,Gram-negative bacteria,None of these penicillinase-resistant penicillins by itself inhibits the Gram-negative bacteria at 100 μg./ml.
Cc1onc(-c2c(F)cccc2Cl)c1C(=O)N[C@@H]1C(=O)N2[C@@H]1SC(C)(C)[C@@H]2C(=O)O [flucloxacillin],inhibition of the Gram-negative bacteria by the penicillinase-resistant penicillin by itself,Gram-negative bacteria,None of these penicillinase-resistant penicillins by itself inhibits the Gram-negative bacteria at 100 μg./ml.
"CC1(C)S[C@@H]2C(NC(=O)C(N)c3cccc(O)c3)C(=O)N2[C@H]1C(=O)O (stereo partly drawn) [Example 8, 6[(+)α-amino-m-hydroxyphenylacetamido]penicillanic Acid]",M.I.C. E.Coli,E.Coli; listed as m OH +,25 µg/mL
same,M.I.C. Proteus mirabilis,Proteus mirabilis; listed as m OH +,25 µg/mL
same,M.I.C. Salm. typhi,Salm. typhi; listed as m OH +,12.5 µg/mL
same,M.I.C. Shigella flexneri,Shigella flexneri; listed as m OH +,25 µg/mL
same,M.I.C. Kleb. pneum,Kleb. pneum; listed as m OH +,12.5 µg/mL
"CC1(C)S[C@@H]2[C@H](NC(=O)[C@@H](N)c3ccccc3)C(=O)N2[C@H]1C(=O)O [None +, reference compound]",MIC,E.Coli,12.5 µg/mL
same,MIC,Salm. typhi,2.5 µg/mL
same,MIC,Kleb. pneum,5 µg/mL
"CC1(C)S[C@@H]2[C@H](NC(=O)[C@H](N)c3ccccc3)C(=O)N2[C@H]1C(=O)O [Ampicillin, D(-)-epimer of α-aminobenzyl penicillin]",MIC,E.Coli,5 µg/mL
same,MIC,Proteus mirabilis; Proteus mirabilis,1.25 µg/mL
same,MIC,Salm. typhi,0.6 µg/mL
same,MIC,Shigella flexneri,12.5 µg/mL
same,MIC,Kleb. pneum,2.5 µg/mL
same,dose excreted at 6 h,clinical,42%
CCOc1ccc2ccccc2c1C(=O)N[C@@H]1C(=O)N2[C@@H]1SC(C)(C)[C@@H]2C(=O)O [nafcillin],inhibition of the Gram-negative bacteria by the penicillinase-resistant penicillin by itself,Gram-negative bacteria,None of these penicillinase-resistant penicillins by itself inhibits the Gram-negative bacteria at 100 μg./ml.
Cc1onc(-c2c(Cl)cccc2Cl)c1C(=O)N[C@@H]1C(=O)N2[C@@H]1SC(C)(C)[C@@H]2C(=O)O [dicloxacillin],oral absorption of known penicillins (in words),[2],better absorbed than cloxacillin
same,inhibition of the Gram-negative bacteria by the penicillinase-resistant penicillin by itself,Gram-negative bacteria,None of these penicillinase-resistant penicillins by itself inhibits the Gram-negative bacteria at 100 μg./ml.
"CC1(C)S[C@@H]2[C@H](NC(=O)[C@H](N)c3ccc(O)cc3)C(=O)N2[C@H]1C(=O)O [Example 3, 6-[(-)α-amino-p-hydroxyphenylacetamido]Penicillanic Acid]",MIC,E.Coli,5 µg/mL
same,MIC,Shigella flexneri,2.5 µg/mL
same,"Minimum inhibitory concentration, E. coli 37",E. coli 37,2.5 µg/mL
same,"Minimum inhibitory concentration, Proteus morganii G","Proteus morganii G; None (alone), 18 hours at 37°C",250 µg/mL
same,"Minimum inhibitory concentration, Proteus morganii G",Proteus morganii G; [3],5.0 µg/mL
same,"Minimum inhibitory concentration, Proteus morganii G",Proteus morganii G; [4],5.0 µg/mL
same,"Minimum inhibitory concentration, Proteus vulgaris K","Proteus vulgaris K; None (alone), 18 hours at 37°C",250 µg/mL
same,"Minimum inhibitory concentration, Proteus vulgaris K",Proteus vulgaris K; [3],2.5 µg/mL
same,"Minimum inhibitory concentration, Proteus vulgaris K",Proteus vulgaris K; [4],5.0 µg/mL
same,"Minimum inhibitory concentration, Proteus vulgaris K",Proteus vulgaris K; [5],50 µg/mL
same,"Minimum inhibitory concentration, Paracolon 232",Paracolon 232,2.5 µg/mL
same,"Minimum inhibitory concentration, Klebsiella C 978","Klebsiella C 978; None (alone), 18 hours at 37°C",250 µg/mL
same,"Minimum inhibitory concentration, Klebsiella C 978",Klebsiella C 978; in the presence of 100 μg./ml. Cloxacillin,50 µg/mL
same,"Minimum inhibitory concentration, Klebsiella C 978",Klebsiella C 978; [3],50 µg/mL
same,"Minimum inhibitory concentration, Klebsiella C 978",Klebsiella C 978; [4],25 µg/mL
same,"Minimum inhibitory concentration, Klebsiella C 978",Klebsiella C 978; [5],50 µg/mL
same,"Minimum inhibitory concentration, Klebsiella C 978",Klebsiella C 978; in the presence of 100 μg./ml. Nafcillin,50 µg/mL
same,dose excreted at 6 h,clinical,74.5%
same,concentration at 0.5 h,[1],2900 ng/mL
same,concentration at 1 h,[1],8250 ng/mL
same,concentration at 2 h,[1],10800 ng/mL
same,concentration at 4 h,[1],3100 ng/mL
same,concentration at 6 h,[1],1130 ng/mL
"CC1(C)S[C@@H]2[C@H](NC(=O)[C@@H](N)c3ccc(O)cc3)C(=O)N2[C@H]1C(=O)O [Example 4, 6[(+)α-amino-p-hydroxyphenylacetamido]penicillanic Acid]",MIC,E.Coli,25 µg/mL

# — patent publication USRE28744E, “Crystalline p-hydroxyampicillin and salts thereof” (priority 1968, dated 1976)
